# Experiments:
# Test in all cases: Kinase profiling
# Format in all cases: binding
# Conditions in all cases: read-out: % Ctrl @ 1000 nM
# MST1 = molecular target: T1, MST1 (Homo sapiens, UniProt Q13043)
# T1 construct: T7 phage fusion (stated for most kinases of the panel only); made in house; host or cells: T7 phage in E. coli (BL21-derived) or HEK-293 cells
# IRAK3 = IRAK3 (Homo sapiens, UniProt Q9Y616)
# MAP4K4 = MAP4K4 (Homo sapiens, UniProt O95819)
# MST1R = molecular target: T2, MST1R (Homo sapiens, UniProt Q04912)
# T2 construct: T7 phage fusion (stated for most kinases of the panel only); made in house; host or cells: T7 phage in E. coli (BL21-derived) or HEK-293 cells
# HUNK = HUNK (Homo sapiens, UniProt P57058)
# HUNK, sequence (P57058 whole entry): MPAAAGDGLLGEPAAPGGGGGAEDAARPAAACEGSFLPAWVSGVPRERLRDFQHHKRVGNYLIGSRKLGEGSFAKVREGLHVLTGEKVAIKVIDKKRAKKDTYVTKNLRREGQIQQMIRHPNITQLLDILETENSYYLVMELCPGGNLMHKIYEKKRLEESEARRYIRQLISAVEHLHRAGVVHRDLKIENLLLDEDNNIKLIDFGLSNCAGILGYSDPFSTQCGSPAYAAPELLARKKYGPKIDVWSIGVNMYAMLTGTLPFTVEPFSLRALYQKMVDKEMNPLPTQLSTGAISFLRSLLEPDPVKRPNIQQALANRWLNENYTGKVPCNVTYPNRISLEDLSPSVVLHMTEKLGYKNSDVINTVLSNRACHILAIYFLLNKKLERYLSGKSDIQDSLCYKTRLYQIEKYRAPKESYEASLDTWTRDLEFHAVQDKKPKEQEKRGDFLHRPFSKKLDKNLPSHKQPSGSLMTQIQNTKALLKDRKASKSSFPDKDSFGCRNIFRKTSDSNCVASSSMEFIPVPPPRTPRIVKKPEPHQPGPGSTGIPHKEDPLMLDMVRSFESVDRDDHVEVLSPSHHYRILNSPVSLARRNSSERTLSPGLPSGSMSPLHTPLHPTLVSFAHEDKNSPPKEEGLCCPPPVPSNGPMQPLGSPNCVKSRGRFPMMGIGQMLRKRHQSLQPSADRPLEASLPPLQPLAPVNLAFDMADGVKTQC
# PIK3C2B = PIK3C2B (Homo sapiens, UniProt O00750)
# CDKL3 = CDKL3 (Homo sapiens, UniProt Q8IVW4)
# CDKL3, sequence (Q8IVW4 whole entry): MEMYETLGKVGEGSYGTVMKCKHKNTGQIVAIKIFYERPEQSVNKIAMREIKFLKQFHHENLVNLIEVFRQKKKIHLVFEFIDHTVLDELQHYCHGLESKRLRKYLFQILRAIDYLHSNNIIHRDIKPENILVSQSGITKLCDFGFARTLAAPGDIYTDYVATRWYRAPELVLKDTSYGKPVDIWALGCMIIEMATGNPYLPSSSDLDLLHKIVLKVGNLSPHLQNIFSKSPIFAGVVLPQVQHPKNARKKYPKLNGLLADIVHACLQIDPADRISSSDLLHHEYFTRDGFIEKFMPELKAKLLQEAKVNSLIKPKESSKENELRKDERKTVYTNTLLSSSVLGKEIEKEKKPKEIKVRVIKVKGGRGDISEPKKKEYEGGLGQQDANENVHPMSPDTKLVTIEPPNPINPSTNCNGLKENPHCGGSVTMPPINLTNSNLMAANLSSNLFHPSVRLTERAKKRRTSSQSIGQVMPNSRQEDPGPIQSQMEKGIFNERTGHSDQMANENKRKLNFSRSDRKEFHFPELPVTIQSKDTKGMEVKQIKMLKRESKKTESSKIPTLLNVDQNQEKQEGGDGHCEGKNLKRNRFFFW
# CAMK1G = CAMK1G (Homo sapiens, UniProt Q96NX5)
# CAMK1G, sequence (Q96NX5 whole entry): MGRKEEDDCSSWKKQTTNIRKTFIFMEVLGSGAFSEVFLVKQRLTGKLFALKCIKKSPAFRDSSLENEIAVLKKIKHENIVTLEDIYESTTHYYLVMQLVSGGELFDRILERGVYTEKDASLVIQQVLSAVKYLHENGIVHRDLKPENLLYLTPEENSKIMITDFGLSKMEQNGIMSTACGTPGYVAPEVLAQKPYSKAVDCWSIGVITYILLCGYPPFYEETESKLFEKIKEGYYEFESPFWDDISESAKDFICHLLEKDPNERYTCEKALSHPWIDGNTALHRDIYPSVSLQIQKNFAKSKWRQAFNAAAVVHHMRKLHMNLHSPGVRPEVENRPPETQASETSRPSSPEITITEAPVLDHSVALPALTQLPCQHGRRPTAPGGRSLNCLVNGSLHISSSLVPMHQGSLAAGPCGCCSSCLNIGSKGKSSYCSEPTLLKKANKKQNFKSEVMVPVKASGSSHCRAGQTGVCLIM
# PIK3CA (H1047L) = PIK3CA (H1047L) (Homo sapiens, UniProt P42336, H1047L)
# MEK3 = molecular target: T3, MEK3 (Homo sapiens, UniProt P46734)
# T3 construct: T7 phage fusion (stated for most kinases of the panel only); made in house; host or cells: T7 phage in E. coli (BL21-derived) or HEK-293 cells
# CDC2L1 = CDC2L1 (Homo sapiens, UniProt P21127)
# [1] = molecular target: JAK2 (JH1domain-catalytic) (Homo sapiens, UniProt O60674)
# PRP4 = PRP4 (Homo sapiens, UniProt Q13523)
# [2] = molecular target: ABL1 (F317I)-nonphosphorylated (Homo sapiens, UniProt P00519, F317I)
# CAMKK2 = CAMKK2 (Homo sapiens, UniProt Q96RR4)
# NEK10 = molecular target: T4, NEK10 (Homo sapiens, UniProt Q6ZWH5)
# T4 construct: T7 phage fusion (said for most assays); made in house
# MYLK2 = molecular target: T5, MYLK2 (Homo sapiens, UniProt Q9H1R3)
# T5 construct: T7 phage fusion (said for most assays); made in house
# MTOR = molecular target: T6, MTOR (Homo sapiens, UniProt P42345)
# T6 construct: T7 phage fusion (said for most assays); made in house
# PIK4CB = PIK4CB (Homo sapiens, UniProt Q9UBF8)
# PCTK2 = PCTK2 (Homo sapiens, UniProt Q00537)
# PCTK2, sequence (Q00537 whole entry): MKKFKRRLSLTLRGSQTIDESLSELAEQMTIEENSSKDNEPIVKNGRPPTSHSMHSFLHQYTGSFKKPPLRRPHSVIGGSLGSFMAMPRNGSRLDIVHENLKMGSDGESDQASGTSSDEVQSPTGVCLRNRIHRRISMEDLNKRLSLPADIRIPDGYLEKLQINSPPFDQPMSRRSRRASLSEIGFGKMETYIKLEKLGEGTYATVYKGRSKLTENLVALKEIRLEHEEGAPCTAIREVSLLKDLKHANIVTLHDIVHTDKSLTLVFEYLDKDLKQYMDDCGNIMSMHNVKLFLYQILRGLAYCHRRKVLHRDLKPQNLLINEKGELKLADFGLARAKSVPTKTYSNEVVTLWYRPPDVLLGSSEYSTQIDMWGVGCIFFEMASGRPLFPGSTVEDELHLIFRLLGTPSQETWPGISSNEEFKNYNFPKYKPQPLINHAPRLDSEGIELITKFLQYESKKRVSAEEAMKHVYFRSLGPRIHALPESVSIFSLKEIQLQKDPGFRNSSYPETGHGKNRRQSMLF
# BTK = BTK (Homo sapiens, UniProt Q06187)
# BTK, sequence (Q06187 whole entry): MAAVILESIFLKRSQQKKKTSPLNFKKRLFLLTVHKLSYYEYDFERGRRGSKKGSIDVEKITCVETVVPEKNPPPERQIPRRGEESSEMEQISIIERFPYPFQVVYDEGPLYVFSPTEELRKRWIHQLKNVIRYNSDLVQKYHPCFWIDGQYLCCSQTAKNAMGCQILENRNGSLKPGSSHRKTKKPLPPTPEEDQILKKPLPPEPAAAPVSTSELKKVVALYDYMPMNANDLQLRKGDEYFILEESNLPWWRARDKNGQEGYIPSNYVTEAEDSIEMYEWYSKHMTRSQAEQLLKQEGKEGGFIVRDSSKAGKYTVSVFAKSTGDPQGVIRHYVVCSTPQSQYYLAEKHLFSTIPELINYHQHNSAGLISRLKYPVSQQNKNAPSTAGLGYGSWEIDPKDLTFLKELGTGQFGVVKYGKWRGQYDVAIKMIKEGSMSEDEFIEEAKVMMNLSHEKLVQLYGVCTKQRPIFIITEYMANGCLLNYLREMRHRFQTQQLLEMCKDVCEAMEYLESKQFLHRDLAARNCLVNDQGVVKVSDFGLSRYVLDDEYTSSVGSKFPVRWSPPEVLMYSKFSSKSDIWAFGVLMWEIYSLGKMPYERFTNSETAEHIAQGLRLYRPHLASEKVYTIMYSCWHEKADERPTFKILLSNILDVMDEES
# MYO3B = molecular target: T7, MYO3B (Homo sapiens, UniProt Q8WXR4)
# T7 construct: T7 phage fusion (said for most assays); made in house
# MET = molecular target: T8, MET (Homo sapiens, UniProt P08581)
# T8 construct: T7 phage fusion (stated for most kinases of the panel only); made in house; host or cells: T7 phage in E. coli (BL21-derived) or HEK-293 cells
# [3] = molecular target: RSK2 (Kin.Dom.1-N-terminal) (Homo sapiens, UniProt P51812)
# ERK2 = ERK2 (Homo sapiens, UniProt P28482)
# ERK2, sequence (P28482 whole entry): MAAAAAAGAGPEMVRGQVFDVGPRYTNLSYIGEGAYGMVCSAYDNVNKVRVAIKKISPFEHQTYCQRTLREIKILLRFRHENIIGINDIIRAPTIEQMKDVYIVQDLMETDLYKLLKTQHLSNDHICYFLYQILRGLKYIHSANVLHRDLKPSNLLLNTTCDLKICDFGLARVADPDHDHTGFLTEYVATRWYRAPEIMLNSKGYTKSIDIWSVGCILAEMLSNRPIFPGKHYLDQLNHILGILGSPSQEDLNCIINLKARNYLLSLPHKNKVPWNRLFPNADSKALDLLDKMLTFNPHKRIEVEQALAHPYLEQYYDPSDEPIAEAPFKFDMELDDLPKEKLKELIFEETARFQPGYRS
# MEK6 = molecular target: T9, MEK6 (Homo sapiens, UniProt P52564)
# T9 construct: T7 phage fusion (stated for most kinases of the panel only); made in house; host or cells: T7 phage in E. coli (BL21-derived) or HEK-293 cells
# MLK3 = molecular target: T10, MLK3 (Homo sapiens, UniProt Q16584)
# T10 construct: T7 phage fusion (stated for most kinases of the panel only); made in house; host or cells: T7 phage in E. coli (BL21-derived) or HEK-293 cells
# T10 sequence (Q16584 whole entry, the tested form may be a part): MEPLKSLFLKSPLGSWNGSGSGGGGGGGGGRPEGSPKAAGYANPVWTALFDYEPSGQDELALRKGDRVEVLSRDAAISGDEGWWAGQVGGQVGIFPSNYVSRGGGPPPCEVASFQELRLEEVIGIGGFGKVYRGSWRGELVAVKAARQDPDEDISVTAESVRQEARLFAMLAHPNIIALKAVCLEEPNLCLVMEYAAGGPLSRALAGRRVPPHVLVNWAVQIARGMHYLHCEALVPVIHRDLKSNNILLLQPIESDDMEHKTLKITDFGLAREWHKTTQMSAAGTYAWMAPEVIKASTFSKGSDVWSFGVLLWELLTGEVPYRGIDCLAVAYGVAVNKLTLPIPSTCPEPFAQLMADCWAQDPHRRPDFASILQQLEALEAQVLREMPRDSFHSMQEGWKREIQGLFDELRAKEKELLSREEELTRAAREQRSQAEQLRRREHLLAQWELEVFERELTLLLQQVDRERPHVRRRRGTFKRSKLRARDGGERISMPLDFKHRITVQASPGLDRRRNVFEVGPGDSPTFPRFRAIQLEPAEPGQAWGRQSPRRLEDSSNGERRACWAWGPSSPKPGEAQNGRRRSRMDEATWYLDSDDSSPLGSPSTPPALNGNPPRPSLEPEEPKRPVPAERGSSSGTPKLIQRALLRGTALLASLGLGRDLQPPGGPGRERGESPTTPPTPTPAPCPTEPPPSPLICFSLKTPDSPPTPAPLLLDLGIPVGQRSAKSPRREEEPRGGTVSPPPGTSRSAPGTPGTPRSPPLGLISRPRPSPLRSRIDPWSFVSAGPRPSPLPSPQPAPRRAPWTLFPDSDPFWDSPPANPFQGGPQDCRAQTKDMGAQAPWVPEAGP
# JNK3 = JNK3 (Homo sapiens, UniProt P53779)
# SGK2 = SGK2 (Homo sapiens, UniProt Q9HBY8)
# RIPK4 = RIPK4 (Homo sapiens, UniProt P57078)
# YSK4 = YSK4 (Homo sapiens, UniProt Q56UN5)
# CLK2 = CLK2 (Homo sapiens, UniProt P49760)
# MEK1 = molecular target: T11, MEK1 (Homo sapiens, UniProt Q02750)
# T11 construct: T7 phage fusion (stated for most kinases of the panel only); made in house; host or cells: T7 phage in E. coli (BL21-derived) or HEK-293 cells
# PFTK1 = PFTK1 (Homo sapiens, UniProt O94921)
# ERK3 = ERK3 (Homo sapiens, UniProt Q16659)
# [4] = molecular target: ABL1 (H396P)-nonphosphorylated (Homo sapiens, UniProt P00519, H396P)
# STK36 = STK36 (Homo sapiens, UniProt Q9NRP7)
# KIT (V559D, T670I) = KIT (V559D, T670I) (Homo sapiens, UniProt P10721, T670I/V559D)
# BMPR2 = BMPR2 (Homo sapiens, UniProt Q13873)
# IRAK3, sequence (Q9Y616 whole entry): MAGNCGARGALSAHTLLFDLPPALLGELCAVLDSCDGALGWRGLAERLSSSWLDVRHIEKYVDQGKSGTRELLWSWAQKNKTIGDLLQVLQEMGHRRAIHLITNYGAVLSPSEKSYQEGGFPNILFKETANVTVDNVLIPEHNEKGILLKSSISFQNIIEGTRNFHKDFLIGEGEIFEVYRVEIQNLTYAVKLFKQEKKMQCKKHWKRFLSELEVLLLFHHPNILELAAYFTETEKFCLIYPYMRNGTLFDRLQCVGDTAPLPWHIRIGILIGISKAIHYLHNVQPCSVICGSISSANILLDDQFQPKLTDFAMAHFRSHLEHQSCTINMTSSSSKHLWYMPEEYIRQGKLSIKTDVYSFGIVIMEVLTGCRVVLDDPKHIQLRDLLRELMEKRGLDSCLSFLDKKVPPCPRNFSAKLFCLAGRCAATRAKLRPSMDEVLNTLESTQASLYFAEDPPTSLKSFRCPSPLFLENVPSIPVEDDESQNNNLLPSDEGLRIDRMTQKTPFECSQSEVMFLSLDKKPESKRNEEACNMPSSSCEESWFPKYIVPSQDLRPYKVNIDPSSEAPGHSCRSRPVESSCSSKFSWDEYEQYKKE
compound,measurement,setting,value
Cc1cc(Oc2cc(NC(=O)C3CC3)ncn2)ccc1NC(=O)Nc1ccc(Cl)c(C(F)(F)F)c1 [CBT-102],remaining activity at 1 µM,MST1,100%
same,remaining activity at 1 µM,IRAK3,100%
same,remaining activity at 1 µM,MAP4K4,3.4%
same,remaining activity at 1 µM,MST1R,89%
same,remaining activity at 1 µM,HUNK,68%
same,remaining activity at 1 µM,PIK3C2B,100%
same,remaining activity at 1 µM,CDKL3,4.3%
same,remaining activity at 1 µM,CAMK1G,91%
same,remaining activity at 1 µM,PIK3CA (H1047L),100%
same,remaining activity at 1 µM,MEK3,90%
same,remaining activity at 1 µM,CDC2L1,36%
same,remaining activity at 1 µM,[1],100%
same,remaining activity at 1 µM,PRP4,95%
same,remaining activity at 1 µM,[2],70%
same,remaining activity at 1 µM,CAMKK2,92%
same,remaining activity at 1 µM,NEK10,77%
same,remaining activity at 1 µM,MYLK2,98%
same,remaining activity at 1 µM,MTOR,94%
same,remaining activity at 1 µM,PIK4CB,100%
same,remaining activity at 1 µM,PCTK2,44%
same,remaining activity at 1 µM,BTK,77%
same,remaining activity at 1 µM,MYO3B,90%
same,remaining activity at 1 µM,MET,80%
same,remaining activity at 1 µM,[3],97%
same,remaining activity at 1 µM,ERK2,97%
same,remaining activity at 1 µM,MEK6,96%
same,remaining activity at 1 µM,MLK3,92%
same,remaining activity at 1 µM,JNK3,85%
same,remaining activity at 1 µM,SGK2,92%
same,remaining activity at 1 µM,RIPK4,100%
same,remaining activity at 1 µM,YSK4,9.6%
same,remaining activity at 1 µM,CLK2,100%
same,remaining activity at 1 µM,MEK1,83%
same,remaining activity at 1 µM,PFTK1,34%
same,remaining activity at 1 µM,ERK3,100%
same,remaining activity at 1 µM,[4],20%
same,remaining activity at 1 µM,STK36,2.5%
same,remaining activity at 1 µM,"KIT (V559D, T670I)",0.3%
same,remaining activity at 1 µM,BMPR2,82%

# From patent US20220088016A1, “CANCER TREATMENT USING MULTI-TARGETED KINASE INHIBITOR IN COMBINATION OF PROTEIN KINASE BIOMARKERS” (ZHEJIANG CROWNMAB BIOTECH CO. LTD., priority 2019, published 2022)
